Experimental data reported in ChEMBL document CHEMBL6071165, “Design, synthesis and biological evaluation of plant-derived miliusol derivatives achieve TNBC profound regression in vivo” (Eur J Med Chem, 2024).
The source made the active and inactive calls. The rule behind the calls is not given here.

Experiments:
[1] = Selectivity ratio of IC50 for antiproliferative activity against human MCF-10A cells assessed as inhibition of cell proliferation incubated for 24 hrs by MTT assay to IC50 for antiproliferative activity against human BT-549 cells assessed as inhibition of cell proliferation incubated for 24 hrs by MTT assay; type: toxicity, cell-based; settings: MCF-10A cells versus BT-549 cells, read-out: Ratio IC50
MDA-MB-231 [2] = assay: Inhibition of colony formation in human MDA-MB-231 cells incubated for 7 days by Crystal violet staining based analysis; type: functional, cell-based; settings: dose 0.5-2 µM, time 7.0 day
BT-549 [3] = assay: Inhibition of tumor sphere formation in human BT-549 cells at 1 uM incubated for 24 hrs by microscopic analysis; type: functional, cell-based
MDA-MB-231 [4] = assay: Downregulation of c-Jun level in human MDA-MB-231 cells incubated for 24 hrs by Western blot analysis; type: functional, cell-based; settings: dose 0.5-2 µM
[5] = molecular target: Eukaryotic translation initiation factor 3 subunit D (Homo sapiens) (UniProt O15371); assay: Induction of thermal stabilization of EIF3D in human BT-549 cells at 1 uM by CETSA analysis; type: cell-based
Eukaryotic translation initiation factor 3 subunit D (Homo sapiens), sequence (O15371 whole entry): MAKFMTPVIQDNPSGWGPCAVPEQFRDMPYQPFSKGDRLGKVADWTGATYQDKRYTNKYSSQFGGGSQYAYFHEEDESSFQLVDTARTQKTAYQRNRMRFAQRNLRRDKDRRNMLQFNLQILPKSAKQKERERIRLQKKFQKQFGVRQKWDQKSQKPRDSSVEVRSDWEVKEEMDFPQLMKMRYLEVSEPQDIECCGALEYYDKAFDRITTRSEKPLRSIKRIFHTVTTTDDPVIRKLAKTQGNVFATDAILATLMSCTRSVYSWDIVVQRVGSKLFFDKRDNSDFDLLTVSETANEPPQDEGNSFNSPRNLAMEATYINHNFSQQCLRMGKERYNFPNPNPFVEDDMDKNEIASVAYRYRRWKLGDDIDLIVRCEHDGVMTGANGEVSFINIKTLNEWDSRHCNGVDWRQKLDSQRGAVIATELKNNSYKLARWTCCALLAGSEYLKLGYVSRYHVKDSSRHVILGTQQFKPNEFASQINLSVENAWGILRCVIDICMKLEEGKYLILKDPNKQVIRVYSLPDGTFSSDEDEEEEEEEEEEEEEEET

MDA-MB-231 [6] = assay: Inhibition of glycolysis in human MDA-MB-231 cells assessed as reduction in lactate production at 0.5 to 2 uM; type: functional, cell-based; settings: dose 0.5-2 µM
MDA-MB-231 [7] = assay: Inhibition of glycolysis in human MDA-MB-231 cells assessed as reduction in glucose uptake at 0.5 to 2 uM incubated for 24 hrs followed by 2-NBDG staining based flow cytometric analysis; type: functional, cell-based; settings: dose 0.5-2 µM
BT-549 [8] = assay: Downregulation of LDHA expression in human BT-549 cells at 1 uM incubated for 24 hrs by DAPI staining based immunofluorescence analysis; type: functional, cell-based
BT-549 [9] = assay: Inhibition of glycolysis in human BT-549 cells assessed as decrease in GLUT4 protein level at 0.5 to 2 uM incubated for 24 hrs by Western blot analysis; type: functional, cell-based; settings: dose 0.5-2 µM
BT-549 [10] = assay: Induction of ER stress in human BT-549 cells assessed as increase in calcium ion content at 2 uM incubated for 24 hrs by Fluo-3AM staining based flow cytometric analysis; type: functional, cell-based
BT-549 [11] = assay: Induction of ER stress in human BT-549 cells assessed as activation of BIP protein level incubated for 24 hrs by Western blot analysis; type: functional, cell-based; settings: dose 0.5-2 µM
MDA-MB-231 [12] = assay: Induction of ER stress in human MDA-MB-231 cells assessed as increase in calcium ion content at 2 uM incubated for 24 hrs by Fluo-3AM staining based flow cytometric analysis; type: functional, cell-based
BT-549 [13] = assay: Induction of apoptosis in human BT-549 cells assessed as necrotic cells at 2 uM incubated for 24 hrs by Annexin V-PI staining based flow cytometric analysis (reference value: 3.32%); type: functional
MDA-MB-231 [14] = assay: Induction of apoptosis in human MDA-MB-231 cells assessed as early apoptotic cells at 1 uM incubated for 24 hrs by Annexin V-PI staining based flow cytometric analysis (reference value: 0.42%); type: functional
MDA-MB-231 [15] = assay: Induction of apoptosis in human MDA-MB-231 cells assessed as viable cells at 2 uM incubated for 24 hrs by Annexin V-PI staining based flow cytometric analysis (reference value: 96.5%); type: functional; settings: read-out: Activity
BT-549 [16] = assay: Induction of apoptosis in human BT-549 cells assessed as upregulation of Bax expression at 0.5 to 2 uM incubated for 24 hrs by Western blot analysis; type: functional, cell-based; settings: dose 0.5-2 µM
BT-549 [17] = assay: Induction of apoptosis in human BT-549 cells assessed as upregulation of cleavage of caspase-3 expression at 0.5 to 2 uM incubated for 24 hrs by Western blot analysis; type: functional, cell-based; settings: dose 0.5-2 µM
MDA-MB-231 [18] = assay: Antitumor activity against human MDA-MB-231 cells xenografted in female BALB/c mouse model assessed as reduction in tumor volume administered subcutaneously and measured every day; type: functional, cell-based; settings: dose 5-20 mg/kg, route sc
MDA-MB-231 [19] = assay: Antitumor activity against human MDA-MB-231 cells xenografted in female BALB/c mouse model assessed as reduction of proliferation rate of tumor at 5 to 20 mg/kg administered subcutaneously and measured every day; type: functional, organism-based; settings: dose 5-20 mg/kg, route sc
[20] = Toxicity in female BALB/c mouse xenografted with human BT-549 cells assessed as effect on pathological changes in heart at 5 to 20 mg/kg, sc by H and E staining based analysis; type: organism-based; settings: in vivo, dose 5-20 mg/kg
[21] = Toxicity in female BALB/c mouse xenografted with human BT-549 cells assessed as effect on pathological changes in spleen at 5 to 20 mg/kg, sc by H and E staining based analysis; type: organism-based; settings: in vivo, dose 5-20 mg/kg
[22] = Toxicity in female BALB/c mouse xenografted with human MDA-MB-231 cells assessed as effect on pathological changes in lung at 5 to 20 mg/kg, sc by H and E staining based analysis; type: organism-based; settings: in vivo, dose 5-20 mg/kg
MDA-MB-231 [23] = assay: Antiproliferative activity against human MDA-MB-231 cells xenografted in female BALB/c mouse model assessed as fold change in inhibition of PKM2 expression at 5 mg/kg administered subcutaneously incubated for 24 hrs by Western blot analysis (reference value: 1.00%); type: functional; settings: route sc
[24] = Toxicity in female BALB/c mouse xenografted with human MDA-MB-231 cells assessed as effect on pathological changes in kidney at 5 to 20 mg/kg, sc by H and E staining based analysis; type: organism-based; settings: in vivo, dose 5-20 mg/kg
MDA-MB-231 [25] = assay: Antiproliferative activity against human MDA-MB-231 cells xenografted in female BALB/c mouse model assessed as inhibition of Ki-67 expression at 5 to 20 mg/kg administered subcutaneously by immunohistochemical staining based microscopic analysis; type: functional, organism-based; settings: dose 5-20 mg/kg, route sc
BT-549 [26] = assay: Antiproliferative activity against human BT-549 cells xenografted in female BALB/c mouse model assessed as increase in E-cadherin level at 5 to 20 mg/kg administered subcutaneously by immunohistochemical staining based microscopic analysis; type: functional, organism-based; settings: dose 5-20 mg/kg, route sc
MDA-MB-231 [27] = assay: Antiproliferative activity against human MDA-MB-231 cells xenografted in female BALB/c mouse model assessed as increase in E-cadherin level at 5 to 20 mg/kg administered subcutaneously by immunohistochemical staining based microscopic analysis; type: functional, organism-based; settings: dose 5-20 mg/kg, route sc
MDA-MB-231 [28] = assay: Antiproliferative activity against human MDA-MB-231 cells xenografted in female BALB/c mouse model assessed as fold change in inhibition of PKM2 expression at 10 mg/kg administered subcutaneously incubated for 24 hrs by Western blot analysis (reference value: 1.00%); type: functional; settings: route sc
BT-549 [29] = assay: Antiproliferative activity against human BT-549 cells xenografted in female BALB/c mouse model assessed as fold change in inhibition of PKM2 expression at 5 mg/kg administered subcutaneously incubated for 24 hrs by Western blot analysis (reference value: 1.05%); type: functional; settings: route sc
BT-549 [30] = assay: Antiproliferative activity against human BT-549 cells xenografted in female BALB/c mouse model assessed as fold change in inhibition of PKM2 expression at 10 mg/kg administered subcutaneously incubated for 24 hrs by Western blot analysis (reference value: 1.05%); type: functional; settings: route sc
MDA-MB-231 [31] = assay: Antiproliferative activity against human MDA-MB-231 cells xenografted in female BALB/c mouse model assessed as fold change in cleavage of caspase-3 level at 5 mg/kg administered subcutaneously incubated for 24 hrs by Western blot analysis (reference value: 1.00%); type: functional; settings: route sc
[32] = Toxicity in female BALB/c mouse assessed as change in kidney administered subcutaneously measured upto 16 days; type: tissue-based; settings: in vivo, sc, 384 h, time < 16 day

SMILES: CC(C)=CCC/C(C)=C/[C@H]1OC(=O)CC12C[C@H](OC(=O)Cc1ccc(NC(=O)/C=C/c3ccccc3)cc1)C=CC2=O (some centres not stated)
- selectivity ratio at 24 h [1]: 57.7
- inhibition (MDA-MB-231 [2]): Dose-Dependent Effect
- inhibition (BT-549 [3]): Active
- Activity (MDA-MB-231 [4]): Dose-Dependent Effect
- Activity [5]: Active
- inhibition (MDA-MB-231 [6]): Active
- inhibition (MDA-MB-231 [7]): Active
- Activity (BT-549 [8]): Active
- inhibition (BT-549 [9]): Active
- Activity (BT-549 [10]): Active
- Activity (BT-549 [11]): Dose-Dependent Effect
- Activity (MDA-MB-231 [12]): Active
- Activity (BT-549 [13]): 4.02%
- Activity (MDA-MB-231 [14]): 0.97%
- viability at 2 µM (MDA-MB-231 [15]): 48.8%
- Activity (BT-549 [16]): Active
- Activity (BT-549 [17]): Active
- Activity (MDA-MB-231 [18]): Dose-Dependent Effect
- Activity (MDA-MB-231 [19]): Active
- Activity [20]: Non-Toxic
- Activity [21]: Non-Toxic
- Activity [22]: Non-Toxic
- fold change (FC) (MDA-MB-231 [23]): 0.81
- Activity [24]: Non-Toxic
- Activity (MDA-MB-231 [25]): Active
- Activity (BT-549 [26]): Active
- Activity (MDA-MB-231 [27]): Active
- fold change (FC) (MDA-MB-231 [28]): 0.62
- fold change (FC) (BT-549 [29]): 0.97
- fold change (FC) (BT-549 [30]): 0.76
- fold change (FC) (MDA-MB-231 [31]): 1.11
- Activity [32]: Non-Toxic
